Test results: PubChem BioAssay AID256 (DTP/NCI, 2004)
Inconclusive results and toxic doses are left out. Rule for the calls: active = survival T/C of 150% or more; inactive = T/C below 125% in these data.

System: CD2F1 mice, L1210 leukemia ip, survival T/C
Test: NCI In Vivo Anticancer Drug Screen. Data for tumor model L1210 Leukemia (intraperitoneal) in CD2F1 (CDF1) mice
Settings: higher = longer survival
Outline: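 Implant tumor; dose compound or vehicle; measure endpoint in both groups; report treated divided by control.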

[1] = endpoint: mean survival time, dose: 100.0 mg/kg/injection, schedule: Q04DX002 (ip), vehicle: other
[2] = endpoint: mean survival time, dose: 200.0 mg/kg/injection, schedule: Q04DX002 (ip), vehicle: other
[3] = endpoint: mean survival time, dose: 400.0 mg/kg/injection, schedule: Q04DX002 (ip), vehicle: other
[4] = endpoint: mean survival time, dose: 100.0 mg/kg/injection, schedule: Q01DX009 (ip), vehicle: saline
[5] = endpoint: mean survival time, dose: 200.0 mg/kg/injection, schedule: Q01DX009 (ip), vehicle: saline
[6] = endpoint: mean survival time, dose: 400.0 mg/kg/injection, schedule: Q01DX009 (ip), vehicle: saline
[7] = endpoint: mean survival time, dose: 100.0 mg/kg/injection, schedule: Q01DX009 (ip), vehicle: saline with Tween-80
[8] = endpoint: mean survival time, dose: 100.0 mg/kg/injection, schedule: Q04DX002 (ip), vehicle: saline with Tween-80
[9] = endpoint: mean survival time, dose: 400.0 mg/kg/injection, schedule: Q04DX002 (ip), vehicle: saline with Tween-80
[10] = endpoint: mean survival time, dose: 200.0 mg/kg/injection, schedule: Q04DX002 (ip), vehicle: saline with Tween-80
[11] = endpoint: mean survival time, dose: 100.0 mg/kg/injection, schedule: Q01DX001 (ip), vehicle: saline
[12] = endpoint: mean survival time, dose: 200.0 mg/kg/injection, schedule: Q01DX001 (ip), vehicle: saline
[13] = endpoint: mean survival time, dose: 400.0 mg/kg/injection, schedule: Q01DX001 (ip), vehicle: saline

Measured: T/C

CCOC(=O)C(CCC(=O)OC)(CCC(=O)OC)C(=O)OCC
inactive: endpoint: mean survival time, dose: 100.0 mg/kg/injection, schedule: Q01DX005 (ip), vehicle: other 95 % of control | endpoint: mean survival time, dose: 100.0 mg/kg/injection, schedule: Q01DX009 (ip), vehicle: other 101 % of control | [1] 88 % of control | endpoint: mean survival time, dose: 200.0 mg/kg/injection, schedule: Q01DX005 (ip), vehicle: other 91 % of control | endpoint: mean survival time, dose: 200.0 mg/kg/injection, schedule: Q01DX009 (ip), vehicle: other 97 % of control | [2] 92 % of control | endpoint: mean survival time, dose: 400.0 mg/kg/injection, schedule: Q01DX005 (ip), vehicle: other 91 % of control | endpoint: mean survival time, dose: 400.0 mg/kg/injection, schedule: Q01DX009 (ip), vehicle: other 86 % of control | [3] 95 % of control

O=C(O)Cc1ccc(O)c(O)c1.[Pt].c1ccc([PH+](c2ccccc2)c2ccccc2)cc1.c1ccc([PH+](c2ccccc2)c2ccccc2)cc1
inactive: endpoint: median survival time, dose: 10.0 mg/kg/injection, schedule: Q04DX003 (ip), vehicle: saline with Tween-80 103 % of control | endpoint: median survival time, dose: 20.0 mg/kg/injection, schedule: Q04DX003 (ip), vehicle: saline with Tween-80 95 % of control | endpoint: median survival time, dose: 40.0 mg/kg/injection, schedule: Q04DX003 (ip), vehicle: saline with Tween-80 101 % of control | endpoint: median survival time, dose: 50.0 mg/kg/injection, schedule: Q04DX003 (ip), vehicle: saline with Tween-80 94 % of control | endpoint: median survival time, dose: 80.0 mg/kg/injection, schedule: Q04DX003 (ip), vehicle: saline with Tween-80 94 % of control | endpoint: median survival time, dose: 100.0 mg/kg/injection, schedule: Q04DX003 (ip), vehicle: saline with Tween-80 94 % of control | endpoint: median survival time, dose: 200.0 mg/kg/injection, schedule: Q04DX003 (ip), vehicle: saline with Tween-80 97 % of control | endpoint: median survival time, dose: 400.0 mg/kg/injection, schedule: Q04DX003 (ip), vehicle: saline with Tween-80 89 % of control

CN(C1=CC(=O)C(N(C)C2CCCCC2)=CC1=O)C1CCCCC1
inactive: endpoint: mean survival time, dose: 3.75 mg/kg/injection, schedule: Q01DX009 (ip), vehicle: saline 94 % of control | endpoint: mean survival time, dose: 3.75 mg/kg/injection, schedule: Q04DX003 (ip), vehicle: saline 103 % of control | endpoint: mean survival time, dose: 7.5 mg/kg/injection, schedule: Q01DX009 (ip), vehicle: saline 90 % of control | endpoint: mean survival time, dose: 7.5 mg/kg/injection, schedule: Q04DX003 (ip), vehicle: saline 101 % of control | endpoint: mean survival time, dose: 15.0 mg/kg/injection, schedule: Q01DX009 (ip), vehicle: saline 89 % of control | endpoint: mean survival time, dose: 15.0 mg/kg/injection, schedule: Q04DX003 (ip), vehicle: saline 98 % of control

O=S(=O)(OCCCCCOS(=O)(=O)c1cccnc1)c1cccnc1
inactive: endpoint: mean survival time, dose: 10.0 mg/kg/injection, schedule: Q04DX002 (ip), vehicle: saline with Tween-80 95 % of control | endpoint: mean survival time, dose: 40.0 mg/kg/injection, schedule: Q04DX002 (ip), vehicle: saline with Tween-80 98 % of control

CC(C)C1OC(C(F)(F)F)(C(F)(F)Cl)CC1=O (centres undefined)
inactive: endpoint: mean survival time, dose: 100.0 mg/kg/injection, schedule: Q01DX001 (ip), vehicle: Klucel (hydroxypropylcellulose) (HPC) 86 % of control | endpoint: mean survival time, dose: 200.0 mg/kg/injection, schedule: Q01DX001 (ip), vehicle: Klucel (hydroxypropylcellulose) (HPC) 97 % of control | endpoint: mean survival time, dose: 400.0 mg/kg/injection, schedule: Q01DX001 (ip), vehicle: Klucel (hydroxypropylcellulose) (HPC) 98 % of control

CC1C(C)C1Cl (centres undefined)
inactive: endpoint: mean survival time, dose: 50.0 mg/kg/injection, schedule: Q01DX005 (ip), vehicle: saline 95 % of control | endpoint: mean survival time, dose: 50.0 mg/kg/injection, schedule: Q01DX009 (ip), vehicle: saline 89 % of control | endpoint: mean survival time, dose: 50.0 mg/kg/injection, schedule: Q04DX002 (ip), vehicle: saline 94 % of control | endpoint: mean survival time, dose: 100.0 mg/kg/injection, schedule: Q01DX005 (ip), vehicle: saline 95 % of control | [4] 93 % of control | endpoint: mean survival time, dose: 100.0 mg/kg/injection, schedule: Q04DX002 (ip), vehicle: saline 97 % of control | endpoint: mean survival time, dose: 200.0 mg/kg/injection, schedule: Q01DX005 (ip), vehicle: saline 109 % of control | [5] 93 % of control | endpoint: mean survival time, dose: 200.0 mg/kg/injection, schedule: Q04DX002 (ip), vehicle: saline 94 % of control | endpoint: mean survival time, dose: 400.0 mg/kg/injection, schedule: Q01DX005 (ip), vehicle: saline 106 % of control | [6] 93 % of control | endpoint: mean survival time, dose: 400.0 mg/kg/injection, schedule: Q04DX002 (ip), vehicle: saline 97 % of control

Cc1c(C=[N+]2CCCCC2)c2ccccc2n1C
inactive: endpoint: mean survival time, dose: 12.5 mg/kg/injection, schedule: Q01DX009 (ip), vehicle: saline with Tween-80 95 % of control | endpoint: mean survival time, dose: 25.0 mg/kg/injection, schedule: Q01DX009 (ip), vehicle: saline with Tween-80 95 % of control | endpoint: mean survival time, dose: 50.0 mg/kg/injection, schedule: Q01DX009 (ip), vehicle: saline with Tween-80 93 % of control | [7] 87 % of control | [8] 100 % of control | [9] 112 % of control

OC1CCCCCCCCCCC12OCCO2 (centres undefined)
inactive: [1] 98 % of control | [2] 113 % of control | [3] 95 % of control

CCN(CC)CCNCCCNCCN(CC)CC
inactive: [4] 92 % of control | endpoint: mean survival time, dose: 100.0 mg/kg/injection, schedule: Q04DX003 (ip), vehicle: saline with Tween-80 98 % of control | [5] 92 % of control | endpoint: mean survival time, dose: 200.0 mg/kg/injection, schedule: Q04DX003 (ip), vehicle: saline with Tween-80 95 % of control | [6] 87 % of control | endpoint: mean survival time, dose: 400.0 mg/kg/injection, schedule: Q04DX003 (ip), vehicle: saline with Tween-80 95 % of control

CSCSCC(N)CO (centres undefined)
inactive: endpoint: mean survival time, dose: 25.0 mg/kg/injection, schedule: Q01DX009 (ip), vehicle: Klucel (hydroxypropylcellulose) (HPC) 102 % of control | endpoint: mean survival time, dose: 50.0 mg/kg/injection, schedule: Q01DX009 (ip), vehicle: Klucel (hydroxypropylcellulose) (HPC) 94 % of control | endpoint: mean survival time, dose: 100.0 mg/kg/injection, schedule: Q01DX009 (ip), vehicle: Klucel (hydroxypropylcellulose) (HPC) 93 % of control | endpoint: mean survival time, dose: 200.0 mg/kg/injection, schedule: Q01DX009 (ip), vehicle: Klucel (hydroxypropylcellulose) (HPC) 96 % of control | endpoint: mean survival time, dose: 400.0 mg/kg/injection, schedule: Q01DX009 (ip), vehicle: Klucel (hydroxypropylcellulose) (HPC) 96 % of control

Nc1ncnc2c1c(CO)cn2C1OC(CO)C(O)C1O (centres undefined)
inactive: endpoint: mean survival time, dose: 25.0 mg/kg/injection, schedule: Q01DX005 (ip), vehicle: distilled water + Tween-80 109 % of control | endpoint: mean survival time, dose: 50.0 mg/kg/injection, schedule: Q01DX005 (ip), vehicle: distilled water + Tween-80 117 % of control | endpoint: mean survival time, dose: 100.0 mg/kg/injection, schedule: Q01DX005 (ip), vehicle: distilled water + Tween-80 113 % of control

CCCCNS(=O)(=O)c1cn(CCCC)c(=O)[nH]c1=O
inactive: endpoint: mean survival time, dose: 37.5 mg/kg/injection, schedule: Q01DX001 (ip), vehicle: saline with Tween-80 100 % of control | endpoint: mean survival time, dose: 150.0 mg/kg/injection, schedule: Q01DX001 (ip), vehicle: saline with Tween-80 96 % of control | endpoint: mean survival time, dose: 175.0 mg/kg/injection, schedule: Q01DX001 (ip), vehicle: saline with Tween-80 100 % of control

C/C=C/COc1c(C)cc(C)cc1/C=C/C
inactive: [8] 94 % of control | [10] 94 % of control | [9] 102 % of control

COc1cc2c(cc1OC)C(Cc1ccccc1[N+](=O)[O-])=NCC2
inactive: [11] 101 % of control | [12] 94 % of control | [13] 95 % of control

CCOC(=O)c1cc(-c2ccccc2)nc2c(Cl)cc(Cl)cc12
inactive: [11] 94 % of control | [12] 90 % of control | [13] 96 % of control

CC(C)(OC(=O)C(NC=O)C(C)(C)S)OC(=O)C(NC=O)C(C)(C)S (centres undefined)
inactive: [7] 101 % of control | endpoint: mean survival time, dose: 200.0 mg/kg/injection, schedule: Q01DX009 (ip), vehicle: saline with Tween-80 101 % of control | endpoint: mean survival time, dose: 400.0 mg/kg/injection, schedule: Q01DX009 (ip), vehicle: saline with Tween-80 101 % of control

S=C(SN1CCCCC1)N1CCCCC1
inactive: endpoint: mean survival time, dose: 50.0 mg/kg/injection, schedule: Q04DX003 (ip), vehicle: other 96 % of control | endpoint: mean survival time, dose: 100.0 mg/kg/injection, schedule: Q04DX003 (ip), vehicle: other 96 % of control | endpoint: mean survival time, dose: 200.0 mg/kg/injection, schedule: Q04DX003 (ip), vehicle: other 91 % of control

COc1ccc([N+](=O)[O-])cc1NC(=O)Nc1ccccc1Cl
inactive: [8] 86 % of control | [10] 93 % of control | [9] 104 % of control
